Test systems include SNB-78; KM-20L2; LXFL 529; M19-MEL; BT-549; DMS-114; HOP-18; XF498.
What all share (assay): DTP human tumour cell line panel, 48 h

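Values below derive from 48-hour exposures of cells grown in 96-well plates, with endpoints linearly interpolated between the two concentrations bracketing the appropriate inhibition level. GI50: concentration for 50% inhibition of growth.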 Active and inactive are the calls of the source. Cut-off read from the data, not from the text of the source: active = GI50 up to about 1.1 µM and inactive = higher. Square brackets hold non-standard residues; d marks the D form. Peptide text beside a SMILES is read from it. * marks the point of attachment. ξ: configuration not given here. X26 = COC1=CC(=O)N(C(=O)[C@@H](O*)C(C)C)[C@H]1Cc1ccccc1; Bn2Val = CC(C)[C@@H](C(=O)*)N(Cc1ccccc1)Cc1ccccc1; Propanoyl(3-(4-MeO-Ph)) = COc1ccc(CCC(=O)*)cc1; Thr(3ξ) = CC(O)[C@H](N)C(=O)O; dNMeL = CN[C@H](CC(C)C)C(=O)O; NMeV = CN[C@H](C(=O)O)C(C)C; dNMeA = CN[C@H](C)C(=O)O; ξLac = CC(O)C(=O)O Some results are limits rather than exact numbers.

With `CC1(C)CCC(=O)c2c(O)ccc(O)c21`, the GI50 in the experiment on SNB-78 was > 100 µM (inactive); with KM-20L2, 83.4 µM (inactive); in the experiment on LXFL 529, 42.8 µM (inactive); with M19-MEL it was > 100 µM (inactive).

Consider `CC(C)(C)N1C(=O)[N-]/[N+](=C(/C(c2ccccc2)=[N+]2/[N-]C(=O)N(C(C)(C)C)C2=O)c2ccccc2)C1=O`, for which, in the experiment on BT-549, the GI50 is > 100 µM (inactive).

With `CCC(C)N1CN(c2ccccc2)C2(CCN(CCCSc3ccc(F)cc3)CC2)C1=O` (centres undefined), the GI50 in the experiment on BT-549 was 1.66 µM (inactive).

With `O=[N+]([O-])c1cc(Cl)ccc1S(=O)(=O)c1cc(Cl)cc2c1NCCC2`, the GI50 in the experiment on BT-549 is 56.9 µM (inactive).

Consider `CCCCCCCCCC[C@H](O)[C@H](O)CC[C@@H](O)[C@H]1CC[C@@H]([C@H]2CC[C@H](CCCCCCC[C@@H](O)CC3=C[C@H](C)OC3=O)O2)O1`, for which the GI50 in the experiment with BT-549 was 37.5 µM (inactive).

As for `Cc1cc(C)c2c(c1C)CN1CN2Cc2c(C)c(C)cc(C)c21`, the GI50 is 42.6 µM (inactive) in the experiment on SNB-78; 2.92 µM (inactive) in the experiment with DMS-114; 8.15 µM (inactive) in the experiment with LXFL 529; 30.5 µM (inactive) in the experiment on M19-MEL; 83.6 µM (inactive) in the experiment on HOP-18.

For `CC(=O)Nc1nc(O)c2nc(C=O)cnc2n1`, the GI50 with BT-549 is > 100 µM (inactive).

In the case of `COc1nc2c(c(=O)n1C)N[C@@H]1[C@@H](O)[C@H](O)CO[C@@H]1N2`, the GI50 in the experiment with BT-549 was > 100 µM (inactive).

As for `NC(=O)C/C=C/CC(N)=O`, the GI50 in the experiment on BT-549 was > 100 µM (inactive).

Turning to `CC#CC1/C(=C\C(=O)OC)CCCC1O` (centres undefined), the GI50 in the experiment on SNB-78, in the experiment with DMS-114, in the experiment with M19-MEL and with XF498 was > 100 µM (inactive) throughout.

As for `Cc1ccc2nc3c(C(=O)NCCN(C)C)cccc3nc2c1`, the GI50 in the experiment with SNB-78 was 7.31 µM (inactive); in the experiment on DMS-114 it was 2.74 µM (inactive); with KM-20L2, 3.53 µM (inactive); in the experiment on LXFL 529 it was 7.38 µM (inactive); with M19-MEL it was 2.44 µM (inactive); in the experiment with HOP-18, > 27.1 µM (inactive).

Turning to `Cc1cc(-c2nc3ccccc3s2)ccc1N`, the GI50 in the experiment with BT-549 was 48.3 µM (inactive).

For `COc1cc(Br)c(OC)c2c(OC)cc(C)cc12`, the GI50 in the experiment with BT-549 is 96.6 µM (inactive).

Turning to `CC(=O)NNc1nc(C)c(C(/C=C/c2ccc3c(c2)OCO3)=N/NC(=O)c2ccncc2)s1`, in the experiment with BT-549, the GI50 is > 100 µM (inactive).

For `Cc1c(/C=N\NC(=S)N(C)CCN(C)C(=S)N/N=C\c2c(C)n(C)n(-c3ccccc3)c2=O)c(=O)n(-c2ccccc2)n1C`, in the experiment on BT-549, the GI50 was > 100 µM (inactive).

On to `CCOC(=O)C(=Cc1[nH]c2ccccc2c1-c1c[nH]c2ccccc12)C(=O)OCC`, for which, in the experiment with BT-549, the GI50 is 14.7 µM (inactive).

Regarding `COC(=O)[C@@H](NC(=O)[C@@H](CC(C)C)N(C)C(=O)[C@@H]1CCCN1C(=O)C(C)O)C(C)OC(=O)CCc1ccc(OC)cc1` (some centres undefined) (H-[ξLac]P[dNMeL][Thr(3ξ)](Propanoyl(3-(4-MeO-Ph)))-OMe), the GI50 in the experiment with BT-549 is > 100 µM (inactive).

Regarding `COC1=CC(=O)N(C(=O)[C@@H](OC(=O)[C@@H](C)N(C)C(=O)[C@@H]2CCCN2C(=O)[C@H](C(C)C)N(C)C(=O)[C@@H](NC(=O)[C@H](C(C)C)N(Cc2ccccc2)Cc2ccccc2)C(C)C)C(C)C)[C@H]1Cc1ccccc1` (Bn2Val-V[NMeV]P[dNMeA]-X26), the GI50 in the experiment with BT-549 was > 100 µM (inactive).

As for `O=C(CNc1cccc([N+](=O)[O-])c1)Nn1c(-c2ccccc2)nc2ccccc2c1=O`, the GI50 in the experiment with BT-549 is 1.87 µM (inactive).

In the case of `CCCC(=O)Nc1ncnc2c1ncn2C1OC2COP(=O)(O)OC2C1OC(=O)CCC` (centres undefined), the GI50 with BT-549 is > 1000 µM (inactive).

On to `COC(=O)Nc1nc2ccccc2[nH]1` [CARBENDAZIM], for which, in the experiment on BT-549, the GI50 was 10.1 µM (inactive).

Consider `c1ccc(CSc2nc(N3CCCCC3)c3cn[nH]c3n2)cc1`, for which, in the experiment with BT-549, the GI50 was 16.5 µM (inactive).

On to `COC[C@H](Cc1ccccc1)/N=C/c1ccccc1`, for which the GI50 in the experiment on BT-549 was > 100 µM (inactive).

Consider `CCCCc1ccc(N2C(=O)c3cccnc3S2(=O)=O)cc1`, for which, in the experiment on BT-549, the GI50 is > 100 µM (inactive).

Turning to `Cc1ccc([N+](=O)[O-])cc1NC(=O)C(=O)C1CCC2=C(Sc3ccccc3N2)C1=O` (centres undefined), the GI50 in the experiment with BT-549 was > 100 µM (inactive).

For the compound `CC1(C)[C@@H]2C[C@H]1c1cnc(-c3ccccn3)cc1[C@H]2C(O)[C@@H]1c2cc(-c3ccccn3)ncc2[C@H]2C[C@@H]1C2(C)C` (some centres undefined), the concentration for 50% growth inhibition (GI50) in the experiment with BT-549 is 0.184 µM (active).

As to `CC(C)(CN)CN`, the GI50 in the experiment with BT-549 is > 100 µM (inactive).

As to `O=[N+]([O-])c1ccc(S(=O)(=O)Cc2ccccc2)c([N+](=O)[O-])c1`, the GI50 with BT-549 was 2.1 µM (inactive).

As for `N#Cc1c(-c2ccc(Cl)cc2)cc(-c2ccc(Nc3ccnc4cc(C(F)(F)F)ccc34)cc2)[nH]c1=O`, the GI50 with BT-549 is 17.4 µM (inactive).

On to `CCCNc1c(Cl)cc(Cl)c2[nH]c3ccccc3c(=O)c12`, for which the GI50 in the experiment on BT-549 was 75.3 µM (inactive).

`N#CC1CCCCC1NC1(C#N)CCCCC1` (centres undefined): the GI50 in the experiment on SNB-78, in the experiment with DMS-114, with KM-20L2, in the experiment with LXFL 529 and in the experiment on XF498 was > 100 µM (inactive) in each case.

Take `CN(C)CCCNCc1cccc2ccccc12`: in the experiment on BT-549, the GI50 was > 100 µM (inactive).

Turning to `COP1(=O)OCc2cnccc2O1` (centres undefined), the GI50 in the experiment with BT-549 is > 100 µM (inactive).

Turning to `Cc1cc(-c2nc3ccccc3s2)ccc1NS(=O)(=O)O`, the GI50 in the experiment with BT-549 is 0.544 µM (active).

Regarding `COc1ccc(C2N(c3ccc(F)c([N+](=O)[O-])c3)C(=O)N3C(c4ccc(OC)cc4)N(c4ccc(F)c([N+](=O)[O-])c4)C(=O)N23)cc1` (centres undefined), the GI50 with BT-549 is > 100 µM (inactive).

Regarding `O=C(Nc1ccccc1C(=O)Nc1nccs1)c1ccccc1`, in the experiment on BT-549, the GI50 was 15.1 µM (inactive).

In the case of `CC(NC(=O)CNP(=O)(c1ccccc1)c1ccccc1)C(=O)NC(Cc1ccccc1)C(=O)OCc1ccccc1` (centres undefined), the GI50 with BT-549 is > 100 µM (inactive).

As to `Nc1nc(Cl)cc(NCC2(O)CCC2)n1`, the GI50 with BT-549 was > 100 µM (inactive).

Turning to `C/C=C1\CN2CCc3c([nH]c4ccccc34)C2CC1C(=O)OC` (centres undefined), the GI50 with KM-20L2, with LXFL 529 and in the experiment on XF498 was > 322 µM (inactive) each time.

`CC(C)N(c1cc2c(cc1F)c(=O)c(C(=O)O)cn2-c1ccc(N2CCN(C)CC2)cn1)C(C)C`: in the experiment with BT-549, the GI50 was 86.7 µM (inactive).

Regarding `CC1N[B@@-](C)(c2ccc(C(F)(F)F)cc2)OC1c1ccccc1` (some centres undefined), the GI50 in the experiment on BT-549 is > 100 µM (inactive).

Turning to `CC(=O)[C@@H]1[C@@H](OC(=O)CCC(C)COC2OC(CO)C(O)C(O)C2O)C[C@H]2[C@@H]3CC=C4C[C@@H](OC5OC(CO)C(OC6OC(C)C(O)C(O)C6O)C(O)C5OC5OC(C)C(O)C(O)C5O)CC[C@]4(C)[C@H]3CC[C@]12C` (some centres undefined), in the experiment with BT-549, the GI50 was > 100 µM (inactive).

In the case of `C[C@]12CC(c3ccccc3O1)C(C#N)C(=O)N2` (some centres undefined), the GI50 in the experiment with BT-549 is > 100 µM (inactive).

Take `CC(=O)NC(CCCNC(=O)OCc1ccccc1)C(=O)NCc1ccccc1` (centres undefined): the GI50 in the experiment with DMS-114, in the experiment with KM-20L2, with LXFL 529, in the experiment with M19-MEL and in the experiment on XF498 was > 100 µM (inactive) in each case.

On to `CC(C)(C)n1c(=O)n2n(c1=O)C1c3cccc4cccc(c34)C2C2c3cccc4cccc(c34)C1n1c(=O)n(C(C)(C)C)c(=O)n12`, for which, in the experiment on BT-549, the GI50 was > 100 µM (inactive).

As to `CCOC(=O)c1nc2ccccc2nc1Oc1ccc(C#N)cc1`, the GI50 in the experiment with BT-549 was > 100 µM (inactive).

For the compound `CC(/C=C/C(=O)NO)=C\C(C)C(=O)c1ccc(N(C)C)cc1` (centres undefined), in the experiment with BT-549, the GI50 is 0.424 µM (active).

Take `Nc1nc(NCCCO)cc(=O)[nH]1`: in the experiment on BT-549, the GI50 is > 100 µM (inactive).

For `COc1ccc(\N=C/C=C/C(=C/COC(C)=O)OC(C)=O)cc1`, the GI50 with BT-549 is 33.3 µM (inactive).

These data come from ChEMBL document CHEMBL1201862, “PubChem BioAssay data set” (2004).
